Measured values from US20110027348A1, “COMPOSITION AND METHOD INHIBITING INFLAMMATION” (priority 2007, published 2011).

Experiments:
[1] = tested on: retinal pigment epithelial (RPE) cells; experiment: Retinal cell culture, growth and differentiation of RPE cells (Example I/6); assay type: cell-based, Wistar rats; conditions: 7 day stage, morphometric analysis, control 0%
Procedure: The aim of this study was to reveal the influence of omega 3 fatty acids, Vitamin E, CoQ10 and LB separately or in combination on the development and differentiation of retinal cells in culture (in vitro). Retinas of newborn (1-2 days) Wistar rats were isolated. and cultured as described in our previous paper (Int. J. Dev. Neurosc. 1998 August; 16(5):423-32). In six different combinations, the culture medium contained 10 g omega 3 fatty acids, 100 mg vitamin E, 100 mg CoQ10 and 0.05 microgram LB per 100 ml. At the 7 day stage size and differentiation of retinal pigment epithelial (RPE) cells were determined by morphometric analysis, as described in the cited work.

[2] = tested on: neurogenic inflammation evoked by capsaicin; experiment: Capsaicin-evoked neurogenic inflammation in newborn rats (Example I/2); assay type: in vivo, Sprague Dawley rats
Procedure: Neurogenic inflammation was evoked in newborn ([…]) Sprague Dawley rats by intraperitoneal administration of capsaicin (50 mg/kg of body mass) as described in the literature (Acta Physiol. Hung. 1987; 69(3-4):323-32). Twenty-four hours before capsaicin injection 10 ml intravenous infusions each of CoQ10, or omega 3+vitamin E, or omega 3+vitamin E+CoQ10 were applied. Each of these combinations contained 1.0 g omega 3, 10 mg vitamin E and 10 mg CoQ10. […] Hypotensive shock and subsequent death were prevented by pre-treatment with omega 3+vitamin E in 26% and in the omega 3+vitamin E+CoQ10 in 64%, while in the control group only 22% survived. […] Six weeks after the capsaicin injection, corneal transparency and sensitivity returned to normal in the pre-treated groups, while in the control group reduced transparency and sensitivity were observed.

TNF-alpha = experiment: LPS-evoked immunogenic inflammation, TNF-alpha levels in monocyte/macrophage culture (Example I/1); assay type: cell-based; conditions: RAW 264,7 culture, control 0%
Procedure: The purpose of this experimental model was to measure inhibitory influence of omega 3 fatty acids, vitamin E and CoQ10 separately and in combination, using methods disclosed in literature (J. Surg Res. 2002 September; 107(1):135-139). For evoking inflammation bacterial endotoxin (LPS) was used and changes in levels of a proinflammatory cytokin, TNF-alpha were measured in a monocyte/macrophage (RAW 264,7) culture. It is clear that both combinations show inhibition of inflammation, the 3 member combination a considerably higher one.

SMILES | RPE differentiation [1] [%] | RPE growth [1] [%] | Neurogenic inflammation, acute features (survival; hypotensive shock and subsequent death prevented) ([2]; 10 ml i.v. infusion 24 hours before capsaicin 50 mg/kg i.p., control 22%) [%] | Neurogenic inflammation, chronic features ([2]; 10 ml i.v. infusion 24 hours before capsaicin, six weeks after capsaicin, control 20%) [%] | Decrease in proinflammatory cytokine levels in immunogenic inflammation: TNF-alpha (TNF-alpha) [%]
COC1=C(OC)C(=O)C(C/C=C(\C)CC/C=C(\C)CC/C=C(\C)CC/C=C(\C)CC/C=C(\C)CC/C=C(\C)CC/C=C(\C)CC/C=C(\C)CC/C=C(\C)CCC=C(C)C)=C(C)C1=O [CoQ10, ubiquinone 10] | 3 | 1 | 22 | 25 | −3
CC(=O)Oc1ccccc1C(=O)O [aspirin] | – | – | – | – | −21
